Several values for one entry are separate records, joined by “and”; a condition that tells them apart may be missing. Equal entries are not always repeated.
Tests used:
[1] = test system: patients with elevated IOP; assay: Effect of one drop of 0.4% tolbutamide on IOP in human subjects; format: in vivo; details: for effect on IOP: glaucomatous patients and patients with elevated IOP after cataract surgery (lens extraction)
Method: a. Effect of 1 drop of 0.4% tolbutamide. Three patients with elevated TOP, due to exfoliative glaucoma, to POAG and to the increase in TOP that occurs in some patients following lens extraction, were treated with one drop of 0.4% tolbutamide solution. TOP was measured at “0” time and at one hour intervals for 5 hours (when possible) by a nurse while the patient was in the hospital.

[2] = test system: normal cynomologus monkeys; assay: Effect of tolbutamide on IOP of normal cynomologus monkeys; format: in vivo; details: for IOP 1 hour post-treatment OD(treated): ketamine anesthesia
Method: Effect of Tolbutamide on TOP of Normal Cynomologus Monkeys: Formulations of the KA channel inhibitor tolbutamidewere tested as a suspension and as a solution for its ability to lower intraocular pressure in normal cynomologus monkeys. For the suspension, 0.4% tolbutamide was prepared in NaCl/borate buffer (0.8 mg NaCl, 1.0 mg boric acid, pH 7.2, water to 1 ml; for the solution, 0.4% tolbutamide was solubilized in 0.25 M NaOH and added to 0.4% hypromellose (HPMC) and the pH adjusted to 6.7. Tonicity was adjusted to 300 mOSm with NaCl and preserved with 0.001% thimerosal. The suspension and solution were tested as follows: Monkeys were anesthetized with ketamine hydrochloride and the baseline IOP determined. One drop of drug was administered to the right eye and the IOP determined 1 hour later, while the animals were still under anesthesia; the left eye served as a control. Two animals for each treatment were used. The decrease in IOP in the untreated eye is the result of anesthesia.

[3] = biological target: T1, sulfonylurea receptor of RIN-m5F cells (Rattus norvegicus, UniProt Q09429); assay: 3H-glibenclamide displacement, RIN-m5F cells; format: binding; details: compared with bovine TM cells
T1 construct: displacement of ^3H-glibenclamide by tolbutamide in bovine trabecular meshwork cells and RIN-m5F cells; host or cells: RIN-m5F rat insulinoma cells
Source text: FIG. 2 depicts, in accordance with embodiments herein, displacement of ^3H-glibenclamide bound to trabecular meshwork cells (green) and RIN-m5F cells (red) by tolbutamide.

rabbits = assay: Effect of KATP channel blockers and openers on intraocular pressure in rabbits; format: in vivo; details: 800 μg of blockers, within 1 hour
Source text: Tolbutamide, a well-known and world-wide clinically approved drug to treat Type II diabetes, was used as the prototype blocker of the KATP channel. […] Tolbutamide solution decreased IOP not only in glaucomatous patients, but also in patients with elevated IOP after cataract surgery.

glaucoma patients = assay: Extended twice-daily 0.4% tolbutamide treatment, IOP of glaucoma patients; format: in vivo, human
Method: FIG. 5 depicts, in accordance with embodiments herein, long-term effect of 0.4% tolbutamide treatment on IOP of a human subject. […] The bottles were color-coded and the patient was not aware of which bottle contained the drug and which contained the vehicle. The patient and the technician measuring the patient's IOP was not aware of which bottle contained the drug and which contained the vehicle
On days 1 through 5, IOP was measured at 8:00 A.M., 1 drop of 0.4% Tolbutamide suspended in buffered PBS (pH 6.7) was instilled to the right eye and IOP measured at the indicated times. A second drop was administered at 10:00 PM. All measurements and drug administrations were done in the hospital. The bottles were color-coded and the patient was not aware of which bottle contained the drug and which contained the vehicle. […]
b. Effect of 0.4% tolbutamide on human subjects for an extended time. To determine whether longer-term treatment with tolbutamide lowered TOP without any significant side effects, […] patient was treated with one drop of 0.4% tolbutamide twice daily (FIGS. 5-7) as shown in the figures. Vials containing drug and vehicle were color-coded by the manufacturing facility; the patient, the nurse and the investigator were not aware which vial contained the drug and which vial contained the vehicle.
On days 1 through 5, IOP was measured at 8:00 A.M., 1 drop of 0.4% Tolbutamide suspended in buffered PBS (pH 6.7) was instilled to the right eye and IOP measured at the indicated times. A second drop was administered at 10:00 PM. All measurements and drug administrations were done in the hospital, since the patient was admitted for an unrelated condition. […]

[4] = test system: ocular hypertensive patient; assay: Fluorophotometry of aqueous humor inflow and outflow facility; format: in vivo, human
Method: Thus, they investigated whether one drop of […] tolbutamide would affect aqueous dynamics using fluorophotometry to measure aqueous production and outflow.
Fluorophotometry. To define the mechanism of action of tolbutamide, measurements of aqueous dynamics were done on patient 2 (See FIG. 6). For this study TOP and rate of aqueous formation were measured at 9:00 A.M. The patient was asked to apply one drop of drug to the right eye at 9:15 A.M. and one at 10:00 P.M. for 3 days. On the morning of the fourth day TOP and rate of aqueous formation were again measured.
Facility of Outflow (C) was calculated after Goldman:
[formula] where IOPt is the intraocular pressure in mmHg at the time the rate of inflow is measured. Episcleral pressure for this patient was estimated at 9 mmHg.

[5] = Patient 2, 0.4% in PBS pH 6.7 twice daily, Day 1 6:30 PM
[6] = Patient 2, 0.4% in PBS pH 6.7 twice daily, Day 2 4:00 PM
[7] = Patient 2, 0.4% in PBS pH 6.7 twice daily, Day 2 8:00 AM
[8] = Patient 2, 0.4% in PBS pH 6.7 twice daily, Day 2 8:00 PM
[9] = Patient 2, 0.4% in PBS pH 6.7 twice daily, Day 3 4:00 PM
[10] = Patient 2, 0.4% in PBS pH 6.7 twice daily, Day 3 8:00 AM
[11] = Patient 2, 0.4% in PBS pH 6.7 twice daily, Day 3 8:00 PM
[12] = Patient 2, 0.4% in PBS pH 6.7 twice daily, Day 4 4:00 PM
[13] = Patient 2, 0.4% in PBS pH 6.7 twice daily, Day 4 8:00 AM
[14] = Patient 2, 0.4% in PBS pH 6.7 twice daily, Day 4 8:00 PM
[15] = Patient 2, 0.4% in PBS pH 6.7 twice daily, Day 5 2:00 PM
[16] = Patient 2, 0.4% in PBS pH 6.7 twice daily, Day 5 8:00 AM
[17] = after 3 days, one drop of 0.5% solution to the eye twice daily

T1 sequence (Q09429 whole entry): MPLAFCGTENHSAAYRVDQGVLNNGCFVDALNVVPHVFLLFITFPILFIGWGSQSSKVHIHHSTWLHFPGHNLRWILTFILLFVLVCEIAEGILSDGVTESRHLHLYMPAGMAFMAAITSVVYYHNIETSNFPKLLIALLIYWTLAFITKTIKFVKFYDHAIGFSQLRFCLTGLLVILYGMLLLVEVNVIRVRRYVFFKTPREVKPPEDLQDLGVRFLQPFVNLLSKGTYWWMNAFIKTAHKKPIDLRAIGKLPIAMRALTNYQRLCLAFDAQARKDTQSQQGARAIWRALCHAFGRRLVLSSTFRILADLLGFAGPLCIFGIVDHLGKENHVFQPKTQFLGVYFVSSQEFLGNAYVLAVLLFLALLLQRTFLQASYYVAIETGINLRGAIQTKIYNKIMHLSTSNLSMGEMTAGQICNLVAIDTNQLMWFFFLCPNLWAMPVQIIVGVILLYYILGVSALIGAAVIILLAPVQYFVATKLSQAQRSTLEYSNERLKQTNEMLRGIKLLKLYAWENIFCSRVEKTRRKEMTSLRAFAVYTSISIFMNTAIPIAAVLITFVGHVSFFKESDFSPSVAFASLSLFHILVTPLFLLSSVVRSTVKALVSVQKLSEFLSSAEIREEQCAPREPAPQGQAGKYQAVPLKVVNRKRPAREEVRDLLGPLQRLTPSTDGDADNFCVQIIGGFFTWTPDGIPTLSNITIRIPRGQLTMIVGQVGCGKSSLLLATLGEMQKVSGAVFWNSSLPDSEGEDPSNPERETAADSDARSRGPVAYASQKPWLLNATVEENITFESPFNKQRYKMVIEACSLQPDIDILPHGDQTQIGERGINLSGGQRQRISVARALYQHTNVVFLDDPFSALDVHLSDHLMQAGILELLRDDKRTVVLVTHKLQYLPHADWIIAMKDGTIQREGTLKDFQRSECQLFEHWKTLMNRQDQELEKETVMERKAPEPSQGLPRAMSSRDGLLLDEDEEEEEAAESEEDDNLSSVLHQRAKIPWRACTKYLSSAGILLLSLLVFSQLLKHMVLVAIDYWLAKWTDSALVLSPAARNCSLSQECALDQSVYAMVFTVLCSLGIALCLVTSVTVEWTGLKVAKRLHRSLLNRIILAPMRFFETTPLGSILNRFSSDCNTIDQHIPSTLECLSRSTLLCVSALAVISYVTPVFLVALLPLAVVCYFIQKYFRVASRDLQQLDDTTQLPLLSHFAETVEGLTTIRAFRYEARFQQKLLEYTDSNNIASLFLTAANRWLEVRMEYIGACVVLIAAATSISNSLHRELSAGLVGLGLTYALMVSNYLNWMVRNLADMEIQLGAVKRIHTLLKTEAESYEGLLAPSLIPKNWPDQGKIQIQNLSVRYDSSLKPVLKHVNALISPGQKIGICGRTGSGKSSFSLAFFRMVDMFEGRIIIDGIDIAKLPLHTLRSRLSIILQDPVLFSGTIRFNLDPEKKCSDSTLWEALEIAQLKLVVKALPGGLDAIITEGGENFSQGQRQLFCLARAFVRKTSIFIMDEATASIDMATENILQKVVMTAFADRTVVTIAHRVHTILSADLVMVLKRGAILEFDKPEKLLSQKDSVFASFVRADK
T1 sequence (P70673 whole entry partner): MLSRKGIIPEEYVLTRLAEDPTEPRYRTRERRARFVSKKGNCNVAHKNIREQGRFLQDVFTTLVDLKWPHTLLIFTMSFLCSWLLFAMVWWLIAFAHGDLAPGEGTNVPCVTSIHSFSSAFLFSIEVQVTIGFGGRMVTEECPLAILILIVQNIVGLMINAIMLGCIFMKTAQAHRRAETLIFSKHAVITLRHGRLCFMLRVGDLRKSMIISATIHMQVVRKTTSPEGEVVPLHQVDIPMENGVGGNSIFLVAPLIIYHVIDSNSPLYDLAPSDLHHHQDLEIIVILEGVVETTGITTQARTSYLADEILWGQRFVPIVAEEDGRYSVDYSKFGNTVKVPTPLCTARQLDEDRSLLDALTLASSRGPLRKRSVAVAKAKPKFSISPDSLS

CCCCNC(=O)NS(=O)(=O)c1ccc(C)cc1 [Tolbutamide, tolbutamide]
IOP spike that occurs following cataract surgery ([1]; 0.4%): prevents the IOP spike | lowering of intraocular pressure ([1]; 0.4%, primary open angle glaucoma and exfoliative glaucoma patients): 25-50% | IOP ([1]; Patient 1 Exfoliative Glaucoma of OD, OD, 2 hrs after one drop 0.4% solution, pre-treatment 48): 44 mm of Hg | IOP ([1]; Patient 1 Exfoliative Glaucoma of OD, OD, 3 hrs after one drop 0.4% solution, pre-treatment 48): 32 mm of Hg | IOP ([1]; Patient 1 Exfoliative Glaucoma of OD, OD, 4 hrs after one drop 0.4% solution, pre-treatment 48): 30 mm of Hg | IOP ([1]; Patient 1 Exfoliative Glaucoma of OD, OD, 5 hrs after one drop 0.4% solution, pre-treatment 48): 30 mm of Hg | IOP ([1]; Patient 1 Exfoliative Glaucoma of OD, OS, 2 hrs, pre-treatment 20): 18 mm of Hg | IOP ([1]; Patient 1 Exfoliative Glaucoma of OD, OS, 3 hrs, pre-treatment 20): 14 mm of Hg | IOP ([1]; Patient 1 Exfoliative Glaucoma of OD, OS, 4 hrs, pre-treatment 20): 14 mm of Hg | IOP ([1]; Patient 1 Exfoliative Glaucoma of OD, OS, 5 hrs, pre-treatment 20): 14 mm of Hg | IOP ([1]; Patient 2 Primary Open Angle Glaucoma, OD, 1 hr after one drop 0.4% solution, pre-treatment 34): 30 mm of Hg | IOP ([1]; Patient 2 Primary Open Angle Glaucoma, OD, 3 hrs, pre-treatment 34): 26 mm of Hg | IOP ([1]; Patient 2 Primary Open Angle Glaucoma, OD, 4 hrs, pre-treatment 34): 22 mm of Hg | IOP ([1]; Patient 2 Primary Open Angle Glaucoma, OD, 5 hrs, pre-treatment 34): 22 mm of Hg | IOP ([1]; Patient 2 Primary Open Angle Glaucoma, OS, 1 hr, pre-treatment 32): 27 mm of Hg | IOP ([1]; Patient 2 Primary Open Angle Glaucoma, OS, 3 hrs, pre-treatment 32): 22 mm of Hg | IOP ([1]; Patient 2 Primary Open Angle Glaucoma, OS, 4 hrs, pre-treatment 32): 20 mm of Hg | IOP ([1]; Patient 2 Primary Open Angle Glaucoma, OS, 5 hrs, pre-treatment 32): 20 mm of Hg | IOP ([1]; Patient 3 IOP Spike after Lens Extraction, OD, 2 hrs after one drop 0.4% solution, pre-treatment 30): 20 mm of Hg | effect on IOP [1]: decreased IOP | effect on IOP ([1]; listed as tolbutamide): decrease TOP significantly | IOP 1 hour post-treatment OD(treated) ([2]; 0.4% solution in 0.4% HPMC pH 6.7, one drop right eye): 22 mmHg and 17 mmHg | IOP 1 hour post-treatment OD(treated) ([2]; 0.4% suspension in NaCl/borate buffer, one drop right eye): 15 mmHg and 18 mmHg | effect on IOP ([2]; cynomolgous monkeys, 500 μg, short-term 1-hour studies): decreased TOP | kinetics of displacement of 3H-glibenclamide by tolbutamide [3]: same kinetics | effect on intraocular pressure (rabbits): decreased IOP | long-term effect on IOP (glaucoma patients; Patient 1 (high IOP, no visual field loss), 0.4% suspended in PBS pH 6.7, right eye twice daily, days 1-6, first day IOP remained high): decreased significantly during the next 5 days | IOP OD (treated) (glaucoma patients; Patient 2 (refractory to Timolol), 0.4% in PBS pH 6.7 twice daily, Day 1 6:00 PM, Day 1 4:00 PM value 31): 21 mm Hg | IOP OD (treated) % Change (glaucoma patients; Patient 2, 0.4% in PBS pH 6.7 twice daily, Day 1 6:00 PM): −32% | IOP OD (treated) (glaucoma patients; [5]): 18 mm Hg | IOP OD (treated) % Change (glaucoma patients; [5]): −42% | IOP OD (treated) (glaucoma patients; [6]): 27 mm Hg | IOP OD (treated) % Change (glaucoma patients; [6]): −13% | IOP OD (treated) (glaucoma patients; [7]): 16 mm Hg | IOP OD (treated) % Change (glaucoma patients; [7]): −48% | IOP OD (treated) (glaucoma patients; [8]): 28 mm Hg | IOP OD (treated) % Change (glaucoma patients; [8]): −10% | IOP OD (treated) (glaucoma patients; [9]): 22 mm Hg | IOP OD (treated) % Change (glaucoma patients; [9]): −29% | IOP OD (treated) (glaucoma patients; [10]): 20 mm Hg | IOP OD (treated) % Change (glaucoma patients; [10]): −35% | IOP OD (treated) (glaucoma patients; [11]): 21 mm Hg | IOP OD (treated) % Change (glaucoma patients; [11]): −32% | IOP OD (treated) (glaucoma patients; [12]): 22 mm Hg | IOP OD (treated) % Change (glaucoma patients; [12]): −29% | IOP OD (treated) (glaucoma patients; [13]): 18 mm Hg | IOP OD (treated) % Change (glaucoma patients; [13]): −42% | IOP OD (treated) (glaucoma patients; [14]): 24 mm Hg | IOP OD (treated) % Change (glaucoma patients; [14]): −23% | IOP OD (treated) (glaucoma patients; [15]): 23 mm Hg | IOP OD (treated) % Change (glaucoma patients; [15]): −26% | IOP OD (treated) (glaucoma patients; [16]): 17 mm Hg | IOP OD (treated) % Change (glaucoma patients; [16]): −45% | effect on IOP (glaucoma patients; glaucoma patients, 1 drop (250 μg) twice daily, 6 days of the study): decreased IOP | increase of aqueous production ([4]; 0.4%): 150% | increase of outflow via the trabecular meshwork-Schlemm's canal complex ([4]; 0.4%): 350% | net outflow increase ([4]; 0.4%): 200% | increase of aqueous formation [4, 17]: approximately 150% | increase of outflow via the trabecular meshwork/Schlemm's canal [4, 17]: 350% | Inflow OD Post-treatment ([4]; patient 2, one drop right eye twice daily for 3 days, morning of fourth day, Pre-Treatment 1.9): 3.0 µL/min | IOP OD Post-treatment ([4]; patient 2, one drop right eye twice daily for 3 days, morning of fourth day, Pre-Treatment 22): 15 mmHg | Outflow Facility OD Post-treatment ([4]; patient 2, one drop right eye twice daily for 3 days, calculated after Goldman, episcleral pressure 9 mmHg, Pre-Treatment 0.146): 0.50 μl/min/mmHg

Source: patent publication US11752117B2, “Methods and compositions for diagnosing and treating glaucoma” (priority 2017, dated 2023)
